Laboratory results from ChEMBL document CHEMBL4483862, “Open-source discovery of chemical leads for next-generation chemoprotective antimalarials” (2018).

System: Plasmodium berghei
Assay: Luciferase/luciferin-expressing antifolate-resistant parasites were used to infect a culture of HepG2 cells that were pre-incubated with compounds. Infected hepatocytes emit light due to the luciferase reaction. Assay results are presented as the percent inhibition of light emission compared to control. […]
Assay type: functional
Details: sporozoite; for IC90: read-out: LUCIFERASE INFECTION ASSAY - IC90

SMILES | IC90 [µM] | further results
CC1(C)CCc2cc(-c3ccnc(S)n3)ccc2O1 | > 12.1 | IC50 (FFLUC_HILL_SLOPE 9.25, FFLUC_R_SQUARED 0.0162, PBLUC_HILL_SLOPE 0.814, PBLUC_R_SQUARED 0.637, read-out: LUCIFERASE INFECTION ASSAY - IC50): 1.38 µM
CCOC(=O)c1ccc(N2C(=O)C=CC2=O)cc1 | > 13.5 | IC50 (FFLUC_HILL_SLOPE 9.09, FFLUC_R_SQUARED 0.613, PBLUC_HILL_SLOPE 2.11, PBLUC_R_SQUARED 0.463, read-out: LUCIFERASE INFECTION ASSAY - IC50): 7.08 µM
COc1ccc(O)c(/C=N/NC(=O)c2ccc(CSc3nc(C)cc(C)n3)cc2)c1 | 4.88 | IC50 (FFLUC_HILL_SLOPE 9.54, FFLUC_R_SQUARED 0.0205, HEPG2TOX_HILL_SLOPE 2.18, HEPG2TOX_R_SQUARED 0.934, PBLUC_HILL_SLOPE 9.18, PBLUC_R_SQUARED 0.547, read-out: LUCIFERASE INFECTION ASSAY - IC50): 3.84 µM
CC(C)(C)c1cc(/C=C2\C=c3ccccc3=C2O)cc(C(C)(C)C)c1O | > 9.47 | IC50 (FFLUC_HILL_SLOPE 9.15, FFLUC_R_SQUARED 0.521, read-out: LUCIFERASE INFECTION ASSAY - IC50): > 9.47 µM
O=C(NCc1ccccc1)/C(=C/c1ccc(OCc2ccccc2)cc1)c1nc2ccccc2[nH]1 | 1.26 | IC50 (FFLUC_HILL_SLOPE 9.07, FFLUC_R_SQUARED 0.413, PBLUC_HILL_SLOPE 2.18, PBLUC_R_SQUARED 0.79, read-out: LUCIFERASE INFECTION ASSAY - IC50): 0.462 µM
CC(=O)OCc1ccccc1Sc1ccccc1C(=O)Nc1ccccc1 | > 8.74 | IC50 (FFLUC_HILL_SLOPE 9.22, FFLUC_R_SQUARED 0.715, read-out: LUCIFERASE INFECTION ASSAY - IC50): > 8.74 µM
Cc1cc(C(=O)COC(=O)c2ccc[nH]c2=O)c(C)n1CC1CCCO1 (configuration not stated) | > 10 | IC50 (FFLUC_HILL_SLOPE 9.51, FFLUC_R_SQUARED 0.378, PBLUC_HILL_SLOPE 2.55, PBLUC_R_SQUARED 0.111, read-out: LUCIFERASE INFECTION ASSAY - IC50): 6.62 µM
CCCCNC(=O)c1c(NC(=O)c2cc(OC)cc(OC)c2)nc2ccccn12 | 5.61 | IC50 (FFLUC_HILL_SLOPE 9.35, FFLUC_R_SQUARED 0.0665, PBLUC_HILL_SLOPE 7.48, PBLUC_R_SQUARED 0.629, read-out: LUCIFERASE INFECTION ASSAY - IC50): 4.18 µM
O=C(c1cccs1)N1[C@@H]2CC[C@@H](C2)[C@H]1c1nc2cccc(OCc3ccc(F)cc3)c2[nH]1 | > 10 | IC50 (FFLUC_HILL_SLOPE 9.4, FFLUC_R_SQUARED 0.0879, PBLUC_HILL_SLOPE 2.58, PBLUC_R_SQUARED 0.515, read-out: LUCIFERASE INFECTION ASSAY - IC50): 7.57 µM
CN(C)CCNc1ccnc2c(-c3ccccc3F)cnn12 | 1.46 | IC50 (FFLUC_HILL_SLOPE 9.41, FFLUC_R_SQUARED 0.56, PBLUC_HILL_SLOPE 1.12, PBLUC_R_SQUARED 0.894, read-out: LUCIFERASE INFECTION ASSAY - IC50): 0.204 µM
Cc1cc(C)n(-c2ccc([N+](=O)[O-])cc2S(=O)(=O)N(CC(=O)N2CCCc3ccccc32)c2ccc(Cl)cc2)n1 | 4.71 | IC50 (FFLUC_HILL_SLOPE 9.12, FFLUC_R_SQUARED 0.891, HEPG2TOX_HILL_SLOPE 1.68, HEPG2TOX_R_SQUARED 0.248, PBLUC_HILL_SLOPE 7.9, PBLUC_R_SQUARED 0.762, read-out: LUCIFERASE INFECTION ASSAY - IC50): 3.56 µM
COc1ccc(NS(=O)(=O)c2cc(NC(=O)c3cccc(OC(F)F)c3)ccc2N2CCCCC2)cc1 | > 10 | IC50 (FFLUC_HILL_SLOPE 8.96, FFLUC_R_SQUARED 0.85, read-out: LUCIFERASE INFECTION ASSAY - IC50): > 10 µM
Cc1nn(-c2nc3ccccc3s2)c2c1C(c1cc(Br)c(O)c(Br)c1)C1C(=O)CCCC1=N2 (configuration not stated) | > 10 | IC50 (FFLUC_HILL_SLOPE 9.07, FFLUC_R_SQUARED 0.197, PBLUC_HILL_SLOPE 1.11, PBLUC_R_SQUARED 0.592, read-out: LUCIFERASE INFECTION ASSAY - IC50): 4.69 µM
COc1cccc(N(C(=O)c2ccc3c(c2)OCO3)c2nc(-c3ccc(Cl)cc3Cl)cs2)c1 | > 10 | IC50 (FFLUC_HILL_SLOPE 8.73, FFLUC_R_SQUARED 0.44, PBLUC_HILL_SLOPE 14.1, PBLUC_R_SQUARED 0.181, read-out: LUCIFERASE INFECTION ASSAY - IC50): 8.64 µM
Cc1ccc(CSc2nc3c(c(-c4cccs4)c2C#N)CCCC3)cc1 | > 8.76 | IC50 (FFLUC_HILL_SLOPE 8.93, FFLUC_R_SQUARED 0.64, PBLUC_HILL_SLOPE 2.69, PBLUC_R_SQUARED 0.339, read-out: LUCIFERASE INFECTION ASSAY - IC50): 6.13 µM
CSc1nc(C)nc(C)c1C(=O)Nc1nc(-c2ccc3c(c2)CCCC3)cs1 | > 10 | IC50 (FFLUC_HILL_SLOPE 9.1, FFLUC_R_SQUARED 0.159, read-out: LUCIFERASE INFECTION ASSAY - IC50): > 10 µM

SMILES | IC90 [µM] | further results
CC(Sc1nnc(-c2cccs2)n1C(C)C1CC2CCC1C2)C(=O)N1CCCc2ccccc21 (configuration not stated) | > 10 | IC50 (FFLUC_HILL_SLOPE 9.01, FFLUC_R_SQUARED 0.23, read-out: LUCIFERASE INFECTION ASSAY - IC50): > 10 µM
Cc1cc(C(=O)CN2CCC(C(=O)Nc3ccc4c(c3)OCO4)CC2)c(C)n1Cc1cccs1 | > 10 | IC50 (FFLUC_HILL_SLOPE 9.45, FFLUC_R_SQUARED 0.378, read-out: LUCIFERASE INFECTION ASSAY - IC50): > 10 µM
CCCCc1ccc(NC2=C(Cl)C(=O)c3ccccc3C2=O)cc1 | 3.62 | IC50 (FFLUC_HILL_SLOPE 9.03, FFLUC_R_SQUARED 0.305, HEPG2TOX_HILL_SLOPE 8.62, HEPG2TOX_R_SQUARED 0.549, PBLUC_HILL_SLOPE 14.3, PBLUC_R_SQUARED 0.552, read-out: LUCIFERASE INFECTION ASSAY - IC50): 3.1 µM
CNc1snc(C)c1C(=O)OCc1cc(Cl)ccc1OC | 4.16 | IC50 (FFLUC_HILL_SLOPE 8.97, FFLUC_R_SQUARED 0.0554, PBLUC_HILL_SLOPE 11, PBLUC_R_SQUARED 0.441, read-out: LUCIFERASE INFECTION ASSAY - IC50): 3.41 µM
Cc1ccc(-n2c(SCC(=O)NC34CC5CC(CC(C5)C3)C4)nnc2-c2ccccc2)cc1C | > 10 | IC50 (FFLUC_HILL_SLOPE 8.79, FFLUC_R_SQUARED 0.279, read-out: LUCIFERASE INFECTION ASSAY - IC50): > 10 µM
CSC1=C(C#N)C(=O)NC(c2c(Cl)cccc2Cl)S1 (configuration not stated) | > 9.96 | IC50 (FFLUC_HILL_SLOPE 9.34, FFLUC_R_SQUARED 0.0497, read-out: LUCIFERASE INFECTION ASSAY - IC50): > 9.96 µM
N#Cc1ccccc1NC(=O)CSc1nc2scc(-c3ccccc3Cl)c2c(=O)n1CCc1ccccc1 | 9.03 | IC50 (FFLUC_HILL_SLOPE 9.25, FFLUC_R_SQUARED 0.857, PBLUC_HILL_SLOPE 5.48, PBLUC_R_SQUARED 0.817, read-out: LUCIFERASE INFECTION ASSAY - IC50): 6.05 µM
CCOC(=O)C1C(C)=NC2=C(C(=O)CC(c3ccc(F)cc3)C2)C1c1ccccc1C(F)(F)F (configuration not stated) | > 6.97 | IC50 (FFLUC_HILL_SLOPE 9.32, FFLUC_R_SQUARED 0.536, HEPG2TOX_HILL_SLOPE 7.97, HEPG2TOX_R_SQUARED 0.882, PBLUC_HILL_SLOPE 14, PBLUC_R_SQUARED 0.0949, read-out: LUCIFERASE INFECTION ASSAY - IC50): 6.64 µM
COc1ccc(-c2cnc3cnc(-c4ccc(CNc5ccccc5)cc4)cn23)cc1 | > 8.12 | IC50 (FFLUC_HILL_SLOPE 9.54, FFLUC_R_SQUARED 0.167, PBLUC_HILL_SLOPE 2.96, PBLUC_R_SQUARED 0.482, read-out: LUCIFERASE INFECTION ASSAY - IC50): 4.66 µM
CC(=O)c1cccc(-c2cnc3cnc(-c4ccc(CNc5ccccc5)cc4)cn23)c1 | > 7.89 | IC50 (FFLUC_HILL_SLOPE 9.2, FFLUC_R_SQUARED 0.0159, PBLUC_HILL_SLOPE 3.04, PBLUC_R_SQUARED 0.57, read-out: LUCIFERASE INFECTION ASSAY - IC50): 4.89 µM
O=C(Nc1nc2ccccc2[nH]1)c1ccc(S(=O)(=O)N2CCc3ccccc3C2)cc1 | > 10 | IC50 (FFLUC_HILL_SLOPE 9.27, FFLUC_R_SQUARED 0.301, PBLUC_HILL_SLOPE 0.89, PBLUC_R_SQUARED 0.688, read-out: LUCIFERASE INFECTION ASSAY - IC50): 4.81 µM
Cc1cc2nnc(-c3ccc(C(F)(F)F)cc3)n2[nH]1 | > 12.4 | IC50 (FFLUC_HILL_SLOPE 9.36, FFLUC_R_SQUARED 0.07, PBLUC_HILL_SLOPE 1.33, PBLUC_R_SQUARED 0.805, read-out: LUCIFERASE INFECTION ASSAY - IC50): 3.1 µM
Cc1ccccc1-c1cn2c(-c3ccc(O)cc3)cnc2cn1 | 3.92 | IC50 (FFLUC_HILL_SLOPE 9.55, FFLUC_R_SQUARED 0.182, HEPG2TOX_HILL_SLOPE 2.1, HEPG2TOX_R_SQUARED 0.88, PBLUC_HILL_SLOPE 16, PBLUC_R_SQUARED 0.259, read-out: LUCIFERASE INFECTION ASSAY - IC50): 3.41 µM
CC(C)=CC(=O)Nc1scc(-c2ccccc2)c1C(=O)OCc1nnc(-c2cccs2)o1 | > 10 | IC50 (FFLUC_HILL_SLOPE 8.85, FFLUC_R_SQUARED 0.514, PBLUC_HILL_SLOPE 2.24, PBLUC_R_SQUARED 0.566, read-out: LUCIFERASE INFECTION ASSAY - IC50): 5.03 µM
O=S(=O)(c1ccccc1)N1[C@@H]2CC[C@@H](C2)[C@H]1c1nc2c(OCCC3CCCCC3)cccc2[nH]1 | > 10 | IC50 (FFLUC_HILL_SLOPE 8.97, FFLUC_R_SQUARED 0.445, PBLUC_HILL_SLOPE 2.11, PBLUC_R_SQUARED 0.35, read-out: LUCIFERASE INFECTION ASSAY - IC50): 6.12 µM
